Test results: publication PMC11856857, “Protease-Resistant, Broad-Spectrum Antimicrobial Peptides with High Antibacterial and Antifungal Activity” (Life, 2025)
Converted amounts (≈) assume the structure as drawn. “Also recorded” adds a separate entry of the source. Read-outs that look alike come from different tables or passages of the source. Where a SMILES comes first, the peptide text is derived from it. Where no end group is shown, it is not given here.

Tests used:
S. aureus ATCC 29213 [1] = format: cell-based, Staphylococcus aureus
P. aeruginosa ATCC 27853 = format: cell-based, Pseudomonas aeruginosa
E. coli ATCC 25922 = format: cell-based, Escherichia coli
human erythrocytes = format: cell-based; details: pH 7.2
Procedure: Permission to acquire the fresh human blood used for this experiment was granted by the […] University Local Ethics Committee (No. 2023-2/32, 27 January 2023). First, 30 μL of fresh male human blood was suspended with 10 mL of autoclaved Tris saline buffer (TBS buffer, 10 mM Tris, 150 mM NaCl, pH 7.2) and centrifuged thrice for 5 min at 1500 rpm. […] Three replicates were performed for each peptide dose. A sample of 20% Triton-X 100/DMSO was used as a positive control. After incubation, the 96-well plate was centrifuged at 1500 rpm for 10 min. Absorbance was measured at 414 nm using a microplate reader (Gen5 Synergy HT BioTek). The % lysis of the peptide was calculated as follows:% lysis = OD414 - OD414 (blank)/OD414 (total lysis - blank) × 100

C. albicans ATCC 10231 = format: cell-based, Candida albicans
S. aureus ATCC 29213 [2] = test: Resistance development by serial passages; format: cell-based, Staphylococcus aureus; details: for MIC: Staphylococcus aureus
[3] = system: resistant Klebsiella pneumoniae (KP) strain; format: cell-based
HaCaT cell line = format: cell-based, human; details: 24 h
Procedure: (§1) 3T3 and HaCaT cells were grown in DMEM consisting of 1% pen/strep and 10% FBS. A total of 5 × 10^4 cells were loaded into each well of a 96-well plate and incubated at 37 °C using a 5% CO2 incubator. All samples were measured in triplicate between 0.5–32 µg/mL concentrations and incubated at 37 °C for 24 h in a 5% CO2 incubator. Only cells and Mag-2 were used as negative and positive controls, respectively. After 24 h, cell cytotoxicity was evaluated using a cell proliferation kit (MTT, Roche, Basel, Switzerland) following the kit protocol and analyzed at 550 nm and 690 nm using a microplate reader (Gen5 Synergy HT BioTek). The concentration of peptides that killed 50% of the cells was determined as the IC50 in the cytotoxicity experiments.

3t3 cell line = format: cell-based, mouse; details: 24 h
Procedure: as §1

proteinase K = target: T1, proteinase K (Parengyodontium album, UniProt P06873); test: Stability toward enzymatic degradation (protease resistance assay); format: in vitro ADME; details: peptide 1 mg/mL in TBS (50 mM Tris, 150 mM NaCl, pH 7.6) with 10% DMSO; proteinase K 1 mg/mL (30 U/mg); 37 °C, overnight (also 10 min, 30 min); HPLC at 214 nm
T1 construct: purchased Qiagen
Procedure: Peptide solutions were prepared at a final concentration of 1 mg/mL in TBS buffer (50 mM Tris, 150 mM NaCl, pH 7.6) including 10% DMSO. The proteinase K solution was adjusted to 1 mg/mL (enzyme activity = 30 U/mg). The peptide solution was then incubated at 37 °C overnight in an orbital shaker. After incubation, the reaction was blocked by adding 1% TFA (100 µL) in water. Peptide solutions with/without the proteinase K enzyme were analyzed at 214 nm using HPLC with an analytic column (AdvanceBio Peptide Plus, 2.1 × 150 mm, 2.7 µm, LC column, Agilent Technologies, Santa Clara, CA, USA) following the linear gradient method (30 min in a range of 5–80% acetonitrile including 0.025% TFA). MIC experiments were repeated to measure biological activities after treating the peptides with proteinase K.

T1 sequence (P06873 106-384): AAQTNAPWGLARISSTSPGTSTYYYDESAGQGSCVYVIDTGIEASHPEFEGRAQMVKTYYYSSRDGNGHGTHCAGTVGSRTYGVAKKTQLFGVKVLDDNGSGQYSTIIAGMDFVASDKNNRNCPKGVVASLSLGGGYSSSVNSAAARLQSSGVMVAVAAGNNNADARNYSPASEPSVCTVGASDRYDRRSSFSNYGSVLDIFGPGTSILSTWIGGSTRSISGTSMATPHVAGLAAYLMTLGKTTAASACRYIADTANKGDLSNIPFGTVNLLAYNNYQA

Compound | MIC S. aureus (S. aureus ATCC 29213 [1]) [µg/mL] | MIC P. aeruginosa (P. aeruginosa ATCC 27853) [µg/mL] | MIC E. coli (E. coli ATCC 25922) [µg/mL] | MIC C. albicans (C. albicans ATCC 10231) [µg/mL] | further results
CC(C)C[C@@H](NC(=O)[C@H](N)CCCNC(=N)N)C(=O)N[C@H](CC(C)C)C(=O)N[C@H](CCCNC(=N)N)C(=O)N[C@H](CC(C)C)C(=O)N[C@H](CC(C)C)C(=O)N[C@H](CC(C)C)C(=O)N[C@H](CC(C)C)C(=O)N[C@H](CCCNC(=N)N)C(=O)N[C@H](CC(C)C)C(=O)N[C@H](CC(C)C)C(=O)N[C@H](CCCNC(=N)N)C(N)=O [D-TN1] (HELM PEPTIDE1{[dR].[dL].[dL].[dR].[dL].[dL].[dL].[dL].[dR].[dL].[dL].[dR].[am]}$$$$V2.0) | 4 (≈ 2.59 µM) | 4 (≈ 2.59 µM) | 8 (≈ 5.17 µM) | 1 (≈ 0.646 µM) | HC50 (human erythrocytes): 77.63 µg/mL
CC(C)C[C@@H](NC(=O)[C@@H](CC(C)C)NC(=O)[C@@H](CC(C)C)NC(=O)[C@@H](CCCNC(=N)N)NC(=O)[C@@H](CC(C)C)NC(=O)[C@@H](CC(C)C)NC(=O)[C@@H](CCCNC(=N)N)NC(=O)[C@@H](CC(C)C)NC(=O)[C@@H](CC(C)C)NC(=O)[C@H](N)CCCNC(=N)N)C(N)=O [D-TN3] (HELM PEPTIDE1{[dR].[dL].[dL].[dR].[dL].[dL].[dR].[dL].[dL].[dL].[am]}$$$$V2.0) | 8 (≈ 6.26 µM) | 4 (≈ 3.13 µM) | 2 (≈ 1.57 µM) | 0.25 (≈ 0.196 µM) | HC50 (human erythrocytes): 32.63 µg/mL
CNC(C)C1CCC(N)C(OC2C(N)CC(N)C(OC3OCC(C)(O)C(NC)C3O)C2O)O1 (centres unmarked) [gentamicin] |  |  |  |  | MIC value in the sixth passage (S. aureus ATCC 29213 [2]; S. aureus ATCC 29213, continuous serial passaging): 8 µg/mL (≈ 16.8 µM); MIC (S. aureus ATCC 29213 [2]; ATCC29213, read-out: MIC value in the sixth passage): 8 µg/mL (≈ 16.8 µM); MIC (S. aureus ATCC 29213 [2]; ATCC29213, read-out: initial MIC value): 1 µg/mL (≈ 2.09 µM)
Polymyxin B [reference compound] |  |  |  |  | MIC KP1 ([3]; Table S2, strain KP1): 16 µg/mL; MIC KP2 ([3]; Table S2, strain KP2): 2 µg/mL; MIC KP8 ([3]; Table S2, strain KP8): 64 µg/mL; MIC KP9 ([3]; Table S2, strain KP9): 2 µg/mL; MIC KP13 ([3]; Table S2, strain KP13): 16 µg/mL; MIC KP22 ([3]; Table S2, strain KP22): 8 µg/mL; MIC KP28 ([3]; Table S2, strain KP28): 16 µg/mL; MIC KP29 ([3]; Table S2, strain KP29): 16 µg/mL; MIC KP35 ([3]; Table S2, strain KP35): 8 µg/mL; MIC KP40 ([3]; Table S2, strain KP40): 4 µg/mL; MIC KP41 ([3]; Table S2, strain KP41): 4 µg/mL; MIC KP42 ([3]; Table S2, strain KP42): 8 µg/mL; MIC KP46 ([3]; Table S2, strain KP46): 16 µg/mL; MIC KP52 ([3]; Table S2, strain KP52): 8 µg/mL
RAARAAARAAR-NH2 [TN6A5] | >1024 | >1024 | 1024 | 128 | 
RALRALARALR-NH2 [TN6A1] | 128 | 256 | 128 | 256 | 
RIIRIIIRIIR-NH2 [TN6I1] | 16 | 128 | 32 | 128 | 
RILRILIRLIR-NH2 [TN6I2] | 2 | 32 | 16 | 128 | 
RLLRLLLLRLLR-NH2 [TN1] | 4 | 32 | 2 | 0.5 | 
RLLRLLLRLLR [D/L-TN6, TN6 template, arginine in L-form, leucine in L- and D-forms] |  |  |  |  | MIC C. albicans (C. albicans ATCC 10231; CLSI M27-A3): 8 µg/mL
RLLRLLLRLLR-NH2 [TN6] | 2 | 8 | 2 | 0.5 | IC50 HaCaT (HaCaT cell line): 15.32 µg/mL; IC50 3t3 (3t3 cell line): 29.80 µg/mL; Stability toward proteinase K (HPLC) (proteinase K): fragmented into different-sized molecules; also recorded: disappeared
RLLRLLRLLL [TN3-carboxy] | 16 | 32 | 4 | 1 | 
RLLRLLRLLL-NH2 [TN3-amide] | 8 | 4 | 8 | 2 | 
RLLRLLRLLLL-NH2 [TN8] | 8 | 256 | 4 | 0.5 | 
RLLRLLRLLLRLLRLLR-NH2 [TN6(2)] | 16 | 64 | 16 | 32 | 
RRLLRLLLRLLR-NH2 [RTN6] | 1 | 8 | 2 | 4 | 
RVLRVLRVLL-NH2 [TN3V1] | 8 | 32 | 16 | 4 | 
RVVRVVRVVV-NH2 [TN3V9] | 16 | 256 | 64 | 128 | 
